As a reminder, the pIC50 is the IC50 on a negative log10 scale, so that one unit is a factor of ten. Read a low pIC50 as a high IC50.

pIC50: −log10 of the molar value.

Sequence of Human KLKB1 (P03952 391-638 limits assumed): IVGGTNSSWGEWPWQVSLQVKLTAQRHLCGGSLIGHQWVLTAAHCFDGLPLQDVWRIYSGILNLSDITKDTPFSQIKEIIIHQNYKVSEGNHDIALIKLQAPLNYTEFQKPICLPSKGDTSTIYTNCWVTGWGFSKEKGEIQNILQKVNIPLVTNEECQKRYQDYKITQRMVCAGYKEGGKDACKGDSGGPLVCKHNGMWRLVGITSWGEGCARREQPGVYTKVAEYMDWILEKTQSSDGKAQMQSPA
Sequence of Human KLKB1 (P03952 20-390 partner limits assumed): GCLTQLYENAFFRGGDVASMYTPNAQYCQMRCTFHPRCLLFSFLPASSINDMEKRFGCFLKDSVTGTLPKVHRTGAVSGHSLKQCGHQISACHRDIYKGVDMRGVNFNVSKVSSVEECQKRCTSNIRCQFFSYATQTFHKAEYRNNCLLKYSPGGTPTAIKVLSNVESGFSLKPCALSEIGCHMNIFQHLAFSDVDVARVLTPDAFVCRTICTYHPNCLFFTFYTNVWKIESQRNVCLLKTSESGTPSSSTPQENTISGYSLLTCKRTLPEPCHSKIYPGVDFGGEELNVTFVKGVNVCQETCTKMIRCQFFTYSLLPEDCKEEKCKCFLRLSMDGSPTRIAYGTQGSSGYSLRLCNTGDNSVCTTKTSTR

The first experiment deals with Human thrombin (Homo sapiens (Human), UniProt P00734). The experiment can be described thus: Thrombin protease activity inhibition assay (chromogenic substrate S-2238). As to conditions: 3 nM thrombin, 125 μM S-2238, 10 min pre-incubation, RT. It counts as biochemical. In short, it runs like this:
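Ten-point, three-fold serial dilutions of compound tested against 3 nM enzyme at RT in Tris buffer (0.05 M, pH 7.4) with 0.015 M NaCl and 0.01% PEG-8000.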
In the case of `CC(C)(C)OC(=O)Cn1cccc(-c2cc(NCc3ccc(Cl)s3)[nH]n2)c1=O` [Cmpd 264, tert-butyl 2-[3-(5-[(5-chlorothiophen-2-yl)methyl]amino-1H-pyrazol-3-yl)-2-oxo-1,2-dihydropyridin-1-yl]acetate], the pIC50 is below 4.00.

For another experiment, the target named is Human KLKB1 (Homo sapiens (Human), UniProt P03952). The experiment can be described thus: KLKB1 kallikrein activity inhibition assay (chromogenic substrate S-2302). Particulars: Table B. It counts as biochemical. The procedure:
The KLKB1 kallikrein activity reported herein (e.g., Tables B, C, and D) was obtained as follows. Human KLKB1 protein was obtained from Enzyme Research Labs. […] KLKB1 was assayed in buffer containing 0.05 M Tris (pH 7.4), 0.01 M NaCl and 0.2% w/v PEG-8000. The final concentration of enzyme used was 3 nM KLKB1. […] All assays were performed in 96-well microtiter plates at room temperature (RT). […] Inhibitor IC50 values were determined by adding test compound as ten point, three-fold serial dilutions in buffer solution, as known in the art. The plate was read at 10 minutes after substrate addition. The IC50 was calculated by plotting the percent (%) inhibition against compound concentration and fitting the data to a constrained four parameter sigmoidal curve, as known in the art.
`CCC(=O)n1nc(-c2ccccc2)cc1NCc1ccc(F)cc1` [Cmpd 268]: the negative logarithm of the IC50 (pIC50) is below 4.00. Still for that read-out and setting: the value for `CC(C)(C)C(=O)n1nc(-c2ncccc2F)cc1NCc1ccc(Cl)s1` [Cmpd 269] was below 4.00; that for `CC(C)(C)C(=O)n1nc(-c2ccco2)cc1NCc1ccc(Cl)s1` [Cmpd 270] was below 4.00; that for `CC(C)(CO)C(=O)n1nc(C2CCOCC2)c(F)c1NCc1ccc(Cl)s1` [Cmpd 273] was 4.00 to 5.00. Same read-out and setting: as for `CC(C)(CO)C(=O)n1nc(C2CCNCC2)c(F)c1NCc1ccc(Cl)s1` [Cmpd 274], the figure is 5.00 to 6.00.

With `CC(C)(CO)C(=O)n1nc(-c2ccccc2)c(F)c1NCc1ccc(Cl)s1` [Cmpd 275], the pIC50 was below 4.00. The same measure, in the same setting: the value for `COc1ccccc1C(=O)n1nc(-c2ccccn2)cc1NCc1cccs1` [Cmpd 278] was below 4.00; that for `CC(C)(C)C(=O)n1nc(-c2ccccn2)c(F)c1NCc1ccccc1` [Cmpd 279] was below 4.00. Same read-out and setting: as for `CC(C)(C)C(=O)n1nc(-c2ccccn2)cc1NCc1ccco1` [Cmpd 280, 1-5-[(furan-2-ylmethyl)amino]-3-(pyridin-2-yl)-1H-pyrazol-1-yl-2,2-dimethylpropan-1-one], the figure is below 4.00. For `COc1ccccc1C(=O)n1nc(-c2ccccn2)cc1NCc1ccco1` [Cmpd 283], the pIC50 was below 4.00. Still for that read-out and setting: as for `COc1ccccc1C(=O)n1nc(C2CCOCC2)cc1NCc1ccc(Cl)s1` [Cmpd 284], the figure is below 4.00; as for `O=C(c1ccoc1)n1nc(-c2ccccn2)cc1NCc1ccc(Cl)s1` [Cmpd 288], 4.00 to 5.00; as for `O=C(c1ccoc1)n1nc(-c2cccs2)cc1NCc1ccc(Cl)s1` [Cmpd 289], below 4.00.

Take `COc1ccccc1C(=O)n1nc(-c2ncccc2F)cc1NCc1ccc(Cl)s1` [Cmpd 290]: the pIC50 is below 4.00. The same measure, in the same setting: the value for `O=C(c1ccoc1)n1nc(-c2ncccc2F)cc1NCc1ccc(Cl)s1` [Cmpd 291] was below 4.00; that for `O=C(c1ccoc1)n1nc(-c2ccccc2)c(F)c1NCc1ccc(Cl)s1` [Cmpd 295] was below 4.00; that for `COc1ccccc1C(=O)n1nc(-c2ccccc2)c(F)c1NCc1ccccc1` [Cmpd 296] was below 4.00. On the same count and under the same terms, the value for `CC(C)(C)OC(=O)N1CCC(c2cc(NCc3ccc(Cl)s3)n(C(=O)C(C)(C)C)n2)CC1` [Cmpd 297] was below 4.00. `CC(C)(C)OC(=O)N1CCC(c2cc(NCc3ccc(Cl)s3)n(C(=O)c3ccsc3)n2)CC1` [Cmpd 298] had a pIC50 below 4.00.

Staying with this experiment, now noted: Table C.
`CCC(=O)n1nc(-c2cccnc2)nc1NCc1ccc(F)cc1` [Cmpd 7] had a negative logarithm of the IC50 (pIC50) of 4.00 to 5.00. In turn, `O=C(c1ccco1)n1nc(-c2ccccn2)nc1NCc1ccccc1` [Cmpd 8] gave a pIC50 of 5.00 to 6.00. In turn, `O=C(c1cccs1)n1nc(-c2ccccn2)nc1NCc1ccc(F)cc1` [Cmpd 10] showed a pIC50 of 5.00 to 6.00. Turning to `O=C(c1ccsc1)n1nc(-c2ccncc2)nc1NCc1ccc(F)cc1` [Cmpd 11], the pIC50 was 5.00 to 6.00. On to `COc1ccccc1C(=O)n1nc(-c2cccnc2)nc1SCc1ccc(F)cc1` [Cmpd 14], for which the pIC50 is 6.00 to 7.00.

The compound `COc1ccccc1C(=O)n1nc(-c2ccncn2)nc1NCc1ccccc1` [Cmpd 16] gave a pIC50 of 6.00 to 7.00.

In turn, `COc1ccccc1C(=O)n1nc(-c2cncnc2)nc1NCc1ccccc1` [Cmpd 17] showed a negative-log IC50 (pIC50) of 6.00 to 7.00. In turn, `Fc1ccc(CNc2nc(-c3ccccn3)nn2-c2nc3ccccc3s2)cc1` [Cmpd 299] had a pIC50 below 4.00. For `CC(C)(C)C(=O)n1nc(-c2ccco2)nc1NCc1ccc(F)cc1` [Cmpd 300], the pIC50 is 4.00 to 5.00. `CC(C)(C)C(=O)n1nc(-c2ccccn2)nc1NCc1ccc(F)cc1` [Cmpd 301] showed a pIC50 of 4.00 to 5.00. Still for that read-out and setting: as for `CC(C)C(=O)n1nc(-c2ccccn2)nc1NCc1ccc(F)cc1` [Cmpd 302], the figure is 4.00 to 5.00; as for `O=C(Cc1ccccc1)n1nc(-c2ccccn2)nc1NCc1ccc(F)cc1` [Cmpd 303], 5.00 to 6.00; as for `CC(C)CC(=O)n1nc(-c2ccccn2)nc1NCc1ccc(F)cc1` [Cmpd 304], 4.00 to 5.00.

`O=C(CCc1ccccc1)n1nc(-c2ccccn2)nc1NCc1ccc(F)cc1` [Cmpd 305]: the pIC50 was 4.00 to 5.00. Regarding `CCCC(=O)n1nc(-c2ccccn2)nc1NCc1ccc(F)cc1` [Cmpd 306], the negative-log IC50 (pIC50) is 4.00 to 5.00. Regarding `CCC(=O)n1nc(-c2ccccn2)nc1NCc1ccc(F)cc1` [Cmpd 307], the pIC50 is 4.00 to 5.00. Compound `CC(C)(C)C(=O)n1nc(-c2cccnc2)nc1NCc1ccc(F)cc1` [Cmpd 308] gave a pIC50 of 4.00 to 5.00. Still for that read-out and setting: as for `COCC(=O)n1nc(-c2cccnc2)nc1NCc1ccc(F)cc1` [Cmpd 309], the figure is below 4.00; as for `CC(C)C(=O)n1nc(-c2cccnc2)nc1NCc1ccc(F)cc1` [Cmpd 310], 4.00 to 5.00. Consider `O=C(Cc1ccccc1)n1nc(-c2cccnc2)nc1NCc1ccc(F)cc1` [Cmpd 311], for which the pIC50 was 5.00 to 6.00.

As for `CC(C)CC(=O)n1nc(-c2cccnc2)nc1NCc1ccc(F)cc1` [Cmpd 312], the pIC50 was 4.00 to 5.00. Still for that read-out and setting: the value for `O=C(CCc1ccccc1)n1nc(-c2cccnc2)nc1NCc1ccc(F)cc1` [Cmpd 313] was 4.00 to 5.00; that for `CCCC(=O)n1nc(-c2cccnc2)nc1NCc1ccc(F)cc1` [Cmpd 314] was 4.00 to 5.00; that for `CC(C)C(=O)n1nc(-c2ccncc2)nc1NCc1ccc(F)cc1` [Cmpd 315] was 4.00 to 5.00. `CC(C)CC(=O)n1nc(-c2ccncc2)nc1NCc1ccc(F)cc1` [Cmpd 316]: the pIC50 was below 4.00. Regarding `CCCC(=O)n1nc(-c2ccncc2)nc1NCc1ccc(F)cc1` [Cmpd 317], the pIC50 is below 4.00.

Turning to `CCC(=O)n1nc(-c2ccncc2)nc1NCc1ccc(F)cc1` [Cmpd 318], the pIC50 was below 4.00. The compound `COc1ccc(CNc2nc(-c3ccccn3)nn2C(=O)C(C)(C)C)cc1` [Cmpd 319] gave a pIC50 of 4.00 to 5.00. `COc1ccc(CNc2nc(-c3ccccn3)nn2C(=O)C(C)C)cc1` [Cmpd 320]: the pIC50 was below 4.00. `COc1ccc(CNc2nc(-c3ccccn3)nn2C(=O)Cc2ccccc2)cc1` [Cmpd 321] gave a pIC50 of 4.00 to 5.00. On to `COc1ccc(CNc2nc(-c3ccccn3)nn2C(=O)CC(C)C)cc1` [Cmpd 322], for which the pIC50 was 4.00 to 5.00.

On to `CCCC(=O)n1nc(-c2ccccn2)nc1NCc1ccc(OC)cc1` [Cmpd 324], for which the pIC50 is 4.00 to 5.00. `CCC(=O)n1nc(-c2ccccn2)nc1NCc1ccc(OC)cc1` [Cmpd 325]: the pIC50 is 4.00 to 5.00. Still for that read-out and setting: as for `COc1ccc(CNc2nc(-c3cccnc3)nn2C(=O)C(C)(C)C)cc1` [Cmpd 326], the figure is below 4.00; as for `COc1ccc(CNc2nc(-c3cccnc3)nn2C(=O)Cc2ccccc2)cc1` [Cmpd 327], 4.00 to 5.00. In turn, `COc1ccc(CNc2nc(-c3cccnc3)nn2C(=O)CC(C)C)cc1` [Cmpd 328] showed a pIC50 below 4.00. The compound `COc1ccc(CNc2nc(-c3cccnc3)nn2C(=O)CCc2ccccc2)cc1` [Cmpd 329] gave a negative logarithm of the IC50 (pIC50) below 4.00.

`CCCC(=O)n1nc(-c2cccnc2)nc1NCc1ccc(OC)cc1` [Cmpd 330]: the pIC50 is 4.00 to 5.00. On to `CC(C)(C)C(=O)n1nc(C2CCCO2)nc1NCc1ccc(Cl)s1` (centres unmarked) [Cmpd 331], for which the pIC50 was 5.00 to 6.00.

Values taken from patent publication US9687479B2, “Multisubstituted aromatic compounds as serine protease inhibitors” (VERSEON CORPORATION, priority 2013, dated 2017).
